Where “and” joins values, the source holds several entries; their conditions need not be identical. Equal values may be shown once. Where a name gives a salt, the structure may show the parent alone. Read-outs that look alike come from different tables or passages of the source.
Biological target: T1, HIV-1 protease (Human immunodeficiency virus type 1 group M subtype B, UniProt P04585)
T1 construct: The protease (or proteinase), consisting of only 99 amino acids, is among the smallest enzymes known
Assay: In vitro HIV protease inhibitory assay (HIV Protease FITC Assay)
Type: biochemical
Procedure, shortened: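 Percent inhibition was read as fluorescence after avidin-bead capture and filtration separated FITC cleavage product from biotinylated substrate. Enzyme and substrate reacted 1 h, RT, dark, at pH 5.5 (0.1 M sodium acetate, 1.0 M NaCl, 0.05% NP-40).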

[1] = HIV-1 Dose 1.000 uM, read-out: HIV-1 Protease % Inhib
[2] = HIV-1 Dose 10.000 uM, read-out: HIV-1 Protease % Inhib
[3] = HIV-1 Dose 100.000 uM, read-out: HIV-1 Protease % Inhib
[4] = HIV-1 Dose 0.123 uM, read-out: HIV-1 Protease % Inhib
[5] = HIV-1 Dose 0.370 uM, read-out: HIV-1 Protease % Inhib
[6] = HIV-1 Dose 1.100 uM, read-out: HIV-1 Protease % Inhib
[7] = HIV-1 Dose 3.300 uM, read-out: HIV-1 Protease % Inhib
[8] = HIV-1 Dose 30.000 uM, read-out: HIV-1 Protease % Inhib
[9] = read-out: HIV-1 Protease % Inhib

| SMILES | inhibition at 1 µM [1] [%] | inhibition at 10 µM [2] [%] | inhibition at 100 µM [3] [%] | inhibition at 0.123 µM [4] [%] | inhibition at 0.37 µM [5] [%] | inhibition at 1.1 µM [6] [%] | inhibition at 3.3 µM [7] [%] | inhibition at 30 µM [8] [%] | other results |
| --- | --- | --- | --- | --- | --- | --- | --- | --- | --- |
| CC(CC1CC1)(c1cc(O)c(C(C2CC2)C2CC2)c(=O)o1)C1CC1 (stereo not drawn) [Example 84, 6-(1-Cyclopropyl-1-cyclopropylmethyl-ethyl)-3-dicyclopropylmethyl-4-hydroxy-pyran-2-one] | 54.8 | 91 |  |  |  |  |  |  | HIV-1 Protease % Inhib (HIV-1 Dose 100.000 uM): 120.09% and 100% |
| CCC(c1ccccc1)c1c(O)cc(C=Cc2ccc(OC)cc2)oc1=O (stereo not drawn) [Example 15, 3-(α-ethylbenzyl)-4-hydroxy-6-(p-methoxystyryl)-2H-Pyran-2-one] | 21.5 | 84 | 102 |  |  |  |  |  | IC50: 9700 nM |
| CCC(CC1CCCN1S(=O)(=O)c1ccc(C)cc1)c1cc(O)c(C(c2ccccc2)C2CC2)c(=O)o1 (stereo not drawn) [Example 138, 2-[2-[3-(Cyclopropylphenylmethyl)-4-hydroxy-2-oxo-2H-pyran-6-yl]butyl]-1-[(4-methylphenyl)sulfonyl]-pyrrolidine] |  | 83.3 |  | < 10 | < 10 | 24.8 | 63.9 | 81.1 |  |
| CCCC1(c2ccccc2)CC(O)=C(C(CC)c2ccccc2)C(=O)O1 (stereo not drawn) [Example 32, 5,6-Dihydro-4-hydroxy-6-phenyl-6-propyl-3-(1-phenylpropyl)-2H-pyran-2-one] |  |  |  |  |  |  |  |  | Ki: 250 nM; inhibition at 1 µM [9]: 56.1%; inhibition at 10 µM [9]: 106%; inhibition at 100 µM [9]: 93.1% |
| O=c1oc(C(CC2CC2)CC2CC2)cc(O)c1C(C1CCCCC1)C1CC1 (stereo not drawn) [Example 92, 3-(Cyclohexyl-cyclopropyl-methyl)-6-(2-cyclopropyl-1-cyclopropylmethyl-ethyl)-4-hydroxy-pyran-2-one] | 38.3 | 80.9 | 87.1 |  |  |  |  |  |  |
| CC(C)CC(CC(C)C)c1cc(O)c(C(c2ccccc2)C2CC2)c(=O)o1 (stereo not drawn) [Example 80, 3-(Cyclopropyl-phenyl-methyl)-4-hydroxy-6-(1-isobutyl-3-methyl-butyl)-pyran-2-one] | 50.5 | 78.9 | 102 |  |  |  |  |  |  |
| O=c1oc(CCC2OCCO2)cc(O)c1C(c1ccccc1)C1CC1 (stereo not drawn) [Example 47, 3-(Cyclopropyl-phenyl-methyl)-6-(2-(1,3)dioxolan-2-yl-ethyl)-4-hydroxy-pyran-2-one] |  |  | 107 |  |  |  |  |  | inhibition at 0.41 µM (HIV-1 Dose 0.410 uM, read-out: HIV-1 Protease % Inhib): < 10%; inhibition at 1.23 µM (HIV-1 Dose 1.230 uM, read-out: HIV-1 Protease % Inhib): 19.4%; inhibition at 3.7 µM (HIV-1 Dose 3.700 uM, read-out: HIV-1 Protease % Inhib): 50%; inhibition at 11 µM (HIV-1 Dose 11.000 uM, read-out: HIV-1 Protease % Inhib): 73.2%; inhibition at 33 µM (HIV-1 Dose 33.000 uM, read-out: HIV-1 Protease % Inhib): 91.3%; Ki (read-out: HIV-1 FITC Ki): 505 nM |
| CCCC(CCC)c1cc(O)c(C(CC)c2ccccc2)c(=O)o1 (stereo not drawn) [Example 40, 4-Hydroxy-3-(1-phenyl-propyl)-6-(1-propyl-butyl)-pyran-2-one] | 37.2 | 79.5 | 80 |  |  |  |  |  |  |
| CCCC1(CCc2ccccc2)CC(O)=C(C(/C=C/c2ccccc2)c2ccccc2)C(=O)O1 (stereo not drawn) [Example 170, 3-(1,3-Diphenyl-2-propenyl)-5,6-dihydro-4-hydroxy-6-(2-phenylethyl)-6-propyl-, (E)-2H-pyran-2-one] |  |  |  |  |  |  |  |  | Ki (read-out: HIV-1 FITC Ki): 50 nM; inhibition at 0.123 µM [9]: < 10%; inhibition at 0.37 µM [9]: 29.6%; inhibition at 1.1 µM [9]: 62.1%; inhibition at 3.3 µM [9]: 86.7%; inhibition at 10 µM [9]: 95.1%; inhibition at 30 µM [9]: 93% |
| O=c1oc(C(CC2CC2)CC2CCCOC2)cc(O)c1C(c1ccccc1)C1CC1 (stereo not drawn) [Example 243, 3-(α-Cyclopropylbenzyl)-6-[1-cyclopropylmethyl-2-(tetrahydropyran-3-yl)ethyl]-4-hydroxy-2H-pyran-2-one] |  | 105 |  | < 10 | 36.2 | 70.5 | 94.7 | 102 | Ki (read-out: HIV-1 FITC Ki): 69 nM |
| CCCC(CC1CCCOC1)c1cc(O)c(C(c2ccccc2)C2CC2)c(=O)o1 (stereo not drawn) [Example 72, 3-(Cyclopropyl-phenyl-methyl)-4-hydroxy-6-[1-(tetrahydro-pyran-3-ylmethyl)-butyl]-pyran-2-one] |  | 93.9 |  | 35 | 68.4 | 90.7 | 98.7 | 97.7 | Ki (read-out: HIV-1 FITC Ki): 31 nM |
| O=c1oc(CCCc2ccccc2)cc(O)c1C(c1ccccc1)C1CC1 (stereo not drawn) [Example 21, 3-(α-cyclopropylbenzyl)-4-hydroxy-6-(3-phenylpropyl)-2H-Pyran-2-one] | 17.6 | 83.7 | 110 |  |  |  |  |  | IC50: 9600 nM |
| CC(C)CC1(CCc2ccccc2)CC(O)=C(C(/C=C/c2ccccc2)c2ccccc2)C(=O)O1 (stereo not drawn) [Example 210, 2H-Pyran-2-one, 3-(1,3-diphenyl-2-propenyl)-5.6-dihydro-4-hydroxy-6-(2-methylpropyl)-6-(2-phenylethyl)-] |  | 75 |  | < 10 | < 10 | 37.5 | 61 | 86 | Ki (read-out: HIV-1 FITC Ki): 78 nM |
| CCC(Cc1ccccc1)c1cc(O)c(C(c2cccc(NS(=O)(=O)/C=C/c3ccccc3)c2)C2CC2)c(=O)o1 (stereo not drawn) [Example 180, 3-(α-Cyclopropyl-meta-((E)-2-phenylethenylsulfonylamino)benzyl)-6-(α-ethylphenethyl)-4-hydroxy-2H-pyran-2-one] |  | 99.5 |  | 32 | 55.9 | 80.5 | 91.9 | 98 | Ki (read-out: HIV-1 FITC Ki): 23.3 nM |
| C=CC(C1=C(O)CC(CCCC)(Cc2ccccc2)OC1=O)c1ccccc1 (stereo not drawn) [Example 219, 2H-Pyran-2-one, 6-butyl-5,6-dihydro-4-hydroxy-6-phenylmethyl-3-(1-phenyl-2-propenyl)-] |  | 79.7 |  | < 10 | < 10 | 35.3 | 65.6 | 90.2 |  |
| CCC(Cc1ccccc1)c1cc(O)c(C(c2cccc(NC(=O)Cc3ccccn3)c2)C2CC2)c(=O)o1 (stereo not drawn) [Example 231, 3-(α-Cyclopropyl-meta-(2-pyridylacetylamino)benzyl)-6-(α-ethylphenethyl)-4-hydroxy-2H-pyran-2-one] |  | 113 |  | 16.5 | 57.4 | 77.7 | 98.9 | 109 | Ki (read-out: HIV-1 FITC Ki): 52.4 nM |
| CCC(C1=C(O)CC2(CCCCC2)OC1=O)c1ccccc1 (stereo not drawn) [Example 33, 4-Hydroxy-1-oxa-3-(1-phenylpropyl)spiro-[5,5]-undec-3-en-2-one, sodium salt] |  |  |  |  |  |  |  |  | inhibition at 1 µM [9]: 10.2%; inhibition at 10 µM [9]: 68.5%; inhibition at 100 µM [9]: 80.7% |
| O=c1oc(CCCF)cc(O)c1C(c1ccccc1)C1CC1 (stereo not drawn) [Example 145, 3-(Cyclopropylphenylmethyl)-6-(3-fluoropropyl)-4-hydroxy-2H-pyran-2-one] |  | 59.7 |  | < 10 | < 10 | < 10 | 26.6 | 84.4 |  |
| CCC(c1ccccc1)c1c(O)cc(-c2ccccc2)oc1=O (stereo not drawn) [Example 1, 3-(α-ethylbenzyl)-4-hydroxy-6-phenyl-2H-Pyran-2-one] | < 10 | 45.5 | 80 |  |  |  |  |  |  |
| CCCc1cc(O)c(C(c2ccccc2)C2CC2)c(=O)o1 (stereo not drawn) [Example 104, 3-(Cyclopropyl-phenyl-methyl)-4-hydroxy-6-propyl-pyran-2-one] | 50 | 73.2 | 87.3 |  |  |  |  |  |  |
| CCC(Cc1ccccc1)c1cc(O)c(C(c2cccc(NC(=O)Nc3ccccc3)c2)C2CC2)c(=O)o1 (stereo not drawn) [Example 212, 3-(α-Cyclopropyl-meta-[(phenylaminocarbonyl)amino]benzyl)-6-(α-ethylphenethyl)-4-hydroxy-2H-pyran-2-one] |  | 67.1 |  | < 10 | < 10 | 17.8 | 43.2 | 69.6 |  |
| CCC(CC(=O)OCc1ccccc1)c1cc(O)c(C(c2ccccc2)C2CC2)c(=O)o1 (stereo not drawn) [Example 132, 3-(Cyclopropylphenylmethyl)-β-ethyl-4-hydroxy-2-oxo-, phenylmethyl ester 2H-pyran-6-propanoic acid] |  | 87.6 |  | < 10 | < 10 | 29.1 | 70.2 | 110 |  |
| C=CC(c1ccccc1)c1c(O)cc(C(CCC)CCC)oc1=O (stereo not drawn) [Example 41, 4-Hydroxy-3-(1-phenyl-allyl)-6-(1-propyl-butyl)-pyran-2-one] | 21.2 | 65.9 | 80.9 |  |  |  |  |  |  |
| CCC(c1ccccc1)c1c(O)cc(CCCc2ccccc2)oc1=O (stereo not drawn) [Example 8, 3-(α-ethylbenzyl)-4-hydroxy-6-(3-phenylpropyl)-2H-Pyran-2-one] | 15.8 | 79 | 96.6 |  |  |  |  |  | IC50: 3900 nM; HIV-1 Protease % Inhib (HIV-1 Dose 100.000 uM): 97% |

— patent EP1203770A1 (priority 1992, dated 1994)
